Experimental data from patent US9855270B2, “Methods and compositions for modulating estrogen receptor mutants” (priority 2014, dated 2018).
Like-named read-outs stand apart in the source and are kept apart here.

Legend:
[1] = system: MCF-7 cells stably expressing ER-α mutants; details: 5 day proliferation assays; depending on the mutation and assay format
Protocol: Potency and efficacy of ERM 1-3 were measured in vitro in ER dependent transcriptional reporter assays and viability assays of MCF-7 cells stably expressing ER-α mutants.
MCF-7 Mutant ER-α Stable Cell Line Generation: MCF-7 cells stably expressing wild-type or ER-α mutants were generated by subcloning ESR1 wild-type and mutant cDNAs containing an amino terminal hemagglutinin tag into pCDH-EF1-MCS-(PGK-Puro) (referred to as EF1 HA-ER-α) and pCDH-UbC-MCS-EF1-Hygro (referred to as UbC HA-ER-α) (System Biosciences). The resulting plasmids, in addition to an empty vector negative control, were subsequently cotransfected into HEK293T cells with the pPACKH1 packaging plasmid mix (System Biosciences) according to the manufacturer's protocol. Four days post transfection lentiviral particles were purified from the cell medium, tiered and stored at −80° C. MCF-7 cells were transduced with the purified viral particles and stable cell lines were selected by growth in RPMI containing 10% FBS plus 1 μG/mL puromycin or 200 μG/mL hygromycin for pCDH-EF1-MCS-(PGK-Puro) and pCDH-UbC-MCS-EF1-Hygro, respectively.
MCF-7 Stable Cell Line Viability: MCF-7 cells were enumerated with a hemacytometer adjusted to a concentration of 40,000 cells per mL in Phenol Free RPMI containing 10% CSS with NEAA and Sodium Pyruvate. 16 microliters of the cell suspension was added to each well of a 384 well tissue culture treated white clear bottom polystyrene plate (Corning) using a Matrix 16 channel electronic pipette. The cells were incubated overnight to allow the cells to adhere. […] The “average” of the relative luminescence units (RLUs) of the wells are considered to be the baseline value at time=zero. […] The relative luminescence units (RLUs) of each well were measured, and relative proliferation (fold) of each sample was determined as follows: (RLU sample−RLU background)/(RLU at T=0)=relative proliferation
Potency and efficacy of ERM 4-23 were measured in vitro in ER dependent transcriptional reporter assays and viability assays of MCF-7 cells stably expressing ER-α mutants.

[2] = system: MCF-7 cells stably expressing EF1 HA-ER-α Y537N; experiment: cells; format: cell-based; details: EF1 HA-ER-α Y537N; for Percent inhibition compared to vehicle: 5-Day Incubation; for Efficacy (Emax): Day 5 relative to Day 0; for EC50: Homo sapiens, MCF7, read-out: Potency (EC50; nM)
In short: (§1)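 Lentivirally transduced MCF-7 (HA-ER-α WT/mutant under EF1 or UbC; empty vector control); phenol-free RPMI + 10% CSS; 10-pt 1:5 dilution, 10 μM–5 pM final; 5 d; CellTiter-Glo; (RLU − background)/RLU T0.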

[3] = system: MCF-7 cells stably expressing EF1 HA-ER-α L536P; experiment: cells; format: cell-based; details: EF1 HA-ER-α L536P; for Percent inhibition compared to vehicle: 5-Day Incubation; for Efficacy (Emax): Day 5 relative to Day 0; for EC50: Homo sapiens, MCF7, read-out: Potency (EC50; nM)
In short: as §1

[4] = system: MCF-7 cells stably expressing UbC HA-ER-α L536P; experiment: cells; format: cell-based; details: for EC50: Homo sapiens, MCF7, read-out: Potency (EC50; nM)
In short: (§2)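 MCF-7 lines stably expressing N-terminal HA-tagged wild-type or mutant ER-α, under a high-expressing EF1 or a low-to-moderate UbC promoter, plus an empty-vector control, grown in phenol-free RPMI with 10% CSS. Compound given at 10 μM to 5 pM final for 5 days. CellTiter-Glo luminescence minus background, divided by the time-zero reading, gave relative proliferation.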

[5] = system: MCF-7 cells transduced with an empty EF1 lentiviral vector (negative control); experiment: MCF-7 Stable Cell Line Viability (EF1 HA-ER-α series); format: cell-based; details: for EC50: Homo sapiens, MCF7, Receptor None (empty EF1 lentiviral vector), read-out: Potency (EC50; nM); for Percent inhibition compared to vehicle / Efficacy (Emax): Receptor None (empty EF1 lentiviral vector); for Percent inhibition compared to vehicle: 5-Day Incubation; for Efficacy (Emax): Day 5 relative to Day 0
In short: as §1

[6] = system: MCF-7 cells stably expressing EF1 HA-ER-α wild-type; experiment: as above; format: cell-based; details: EF1 HA-ER-α Wild-type; for Percent inhibition compared to vehicle: 5-Day Incubation; for Efficacy (Emax): Day 5 relative to Day 0; for EC50: Homo sapiens, MCF7, read-out: Potency (EC50; nM)
In short: as §1

[7] = system: MCF-7 cells stably expressing UbC HA-ER-α wild-type; experiment: MCF-7 Stable Cell Line Viability (UbC HA-ER-α series); format: cell-based; details: UbC HA-ER-α Wild-type; for EC50: Homo sapiens, MCF7, read-out: Potency (EC50; nM); for Percent inhibition compared to vehicle: 5-Day Incubation; for Efficacy (Emax): Day 5 relative to Day 0
In short: as §1

[8] = system: MCF-7 cells (negative control); experiment: as above; format: cell-based; details: Receptor None (MCF-7 negative control); for EC50: Homo sapiens, MCF7, read-out: Potency (EC50; nM)
In short: as §2

[9] = Antagonist Mode, −E2 (Table 27)
[10] = Agonist Mode, −E2, 5-Day Incubation
[11] = Agonist Mode, −E2, Day 5 relative to Day 0
[12] = Antagonist Mode, +E2, 5-Day Incubation
[13] = Antagonist Mode, +E2, Day 5 relative to Day 0

**Q.** For `CC1=C(c2cccc(O)c2)[C@H](c2ccc(OCCN3CC(CF)C3)cc2)Oc2ccc(O)cc21` [Compound 4-23, (S)-2-(4-(2-(3-(fluoromethyl)azetidin-1-yl)ethoxy)phenyl)-3-(3-hydroxyphenyl)-4-methyl-2H-chromen-6-ol], which “reduced the number of viable cells (compared to DMSO control)” value [1] is on record?
**A.** 49%-90%

**Q.** And the “Percent inhibition compared to vehicle” value ([2]; Agonist Mode, −E2)?
**A.** 88%

**Q.** And the “Efficacy (Emax)” value ([2]; Agonist Mode, −E2)?
**A.** 0.74 ± 0.01

**Q.** What about the “Percent inhibition compared to vehicle” value ([2]; Antagonist Mode, +E2) of the same compound?
**A.** 87%

**Q.** What about the “Efficacy (Emax)” value ([2]; Antagonist Mode, +E2) of the same compound?
**A.** 0.70 ± 0.01

**Q.** And the EC50 ([2]; Antagonist Mode, +E2)?
**A.** 45.5 ± 51.7 nM

**Q.** And the EC50 [2, 9]?
**A.** 16 ± 17.6 nM

**Q.** And the “Percent inhibition compared to vehicle” value ([3]; Agonist Mode, −E2)?
**A.** 62%

**Q.** What about the “Efficacy (Emax)” value ([3]; Agonist Mode, −E2) of the same compound?
**A.** 3.11 ± 0.40

**Q.** What about the “Percent inhibition compared to vehicle” value ([3]; Antagonist Mode, +E2) of the same compound?
**A.** 64%

**Q.** And the “Efficacy (Emax)” value ([3]; Antagonist Mode, +E2)?
**A.** 3.25 ± 0.07

**Q.** What about the EC50 ([3]; Antagonist Mode, +E2) of the same compound?
**A.** 15.1 ± 13.6 nM

**Q.** What about the EC50 [3, 9] of the same compound?
**A.** 4.78 ± 4.67 nM

**Q.** And the “Percent inhibition compared to vehicle” value [4, 10]?
**A.** 49%

**Q.** And the “Efficacy (Emax)” value [4, 11]?
**A.** 1.62 ± 0.13

**Q.** And the “Percent inhibition compared to vehicle” value [4, 12]?
**A.** 69%

**Q.** And the “Efficacy (Emax)” value [4, 13]?
**A.** 1.87 ± 0.27

**Q.** What about the EC50 ([4]; Agonist Mode, −E2) of the same compound?
**A.** 0.231 ± 0.104 nM

**Q.** And the EC50 ([4]; Antagonist Mode, +E2)?
**A.** 2.09 ± 0.425 nM

**Q.** What about the EC50 ([5]; Antagonist Mode, +E2) of the same compound?
**A.** 2.81 ± 3.28 nM

**Q.** What about the EC50 [5, 9] of the same compound?
**A.** 0.286 ± 0.294 nM

**Q.** What about the “Percent inhibition compared to vehicle” value ([5]; Agonist Mode, −E2) of the same compound?
**A.** 52%

**Q.** And the “Efficacy (Emax)” value ([5]; Agonist Mode, −E2)?
**A.** 1.06 ± 0.24

**Q.** What about the “Percent inhibition compared to vehicle” value ([5]; Antagonist Mode, +E2) of the same compound?
**A.** 76%

**Q.** What about the “Efficacy (Emax)” value ([5]; Antagonist Mode, +E2) of the same compound?
**A.** 0.96 ± 0.12

**Q.** What about the “Percent inhibition compared to vehicle” value ([6]; Agonist Mode, −E2) of the same compound?
**A.** 62%

**Q.** What about the “Efficacy (Emax)” value ([6]; Agonist Mode, −E2) of the same compound?
**A.** 2.17 ± 0.03

**Q.** And the “Percent inhibition compared to vehicle” value ([6]; Antagonist Mode, +E2)?
**A.** 68%

**Q.** What about the “Efficacy (Emax)” value ([6]; Antagonist Mode, +E2) of the same compound?
**A.** 2.17 ± 0.29

**Q.** And the EC50 ([6]; Antagonist Mode, +E2)?
**A.** 8.65 ± 10.5 nM

**Q.** And the EC50 [6, 9]?
**A.** 2.13 ± 2.06 nM

**Q.** What about the EC50 ([7]; Agonist Mode, −E2) of the same compound?
**A.** 4.04 ± 8.01 nM

**Q.** What about the EC50 ([7]; Antagonist Mode, +E2) of the same compound?
**A.** 0.599 ± 0.3 nM

**Q.** What about the “Percent inhibition compared to vehicle” value ([7]; Agonist Mode, −E2) of the same compound?
**A.** 39%

**Q.** What about the “Efficacy (Emax)” value ([7]; Agonist Mode, −E2) of the same compound?
**A.** 1.13 ± 0.13

**Q.** What about the “Percent inhibition compared to vehicle” value ([7]; Antagonist Mode, +E2) of the same compound?
**A.** 76%

**Q.** And the “Efficacy (Emax)” value ([7]; Antagonist Mode, +E2)?
**A.** 1.20 ± 0.10

**Q.** What about the EC50 ([8]; Agonist Mode, −E2) of the same compound?
**A.** 0.227 ± 0.21 nM

**Q.** And the EC50 ([8]; Antagonist Mode, +E2)?
**A.** 0.378 ± 0.216 nM

**Q.** And the “Percent inhibition compared to vehicle” value [8, 10]?
**A.** 31%

**Q.** And the “Efficacy (Emax)” value [8, 11]?
**A.** 1.20 ± 0.27

**Q.** What about the “Percent inhibition compared to vehicle” value [8, 12] of the same compound?
**A.** 66%

**Q.** And the “Efficacy (Emax)” value [8, 13]?
**A.** 1.08 ± 0.04
